Data reported in patent US20230272077A1, “PD-1 SIGNAL INHIBITOR COMBINATION THERAPY” (KYOTO UNIVERSITY, priority 2015, published 2023).

Assays:
[1] = system: mTOR and its associated proteins S6K and 4EBP1; assay: Western blotting of DLN CD8+ T cells, mTOR pathway; assay type: in vivo, mouse; conditions: CD8+ T cells from mice treated with PD-L1 antibody and reagent
Method: FIG. 7. […] Phosphorylation of AMPK, ACC, mTOR and S6K and the expression of SIRT1 and 4EBP1 were analyzed by Western blotting. b) MC38-bearing mice were treated with PD-L1 antibody in combination with AMPK activator (A769662) and/or mTOR activator (MHY1485) according to the same schedule as shown in FIG. 3b.
CD8^+ T cells were isolated using mouse CD8 Microbeads (Miltenyi Biotec). After washing with PBS twice, 2×10^6 cells were solubilized in a lysis buffer containing 30 mM Tris-HCl (pH.7.4), 150 mM NaCl, 10% glycerol, 0.1% SDS, 1% Triton-X-100, 0.05% Na-Doc, 5 mM EDTA (pH.8.0), protease inhibitor mixture (Roche Molecular Biochemicals) and phosphatase inhibitors (Nacalai Tesque). After measurement of protein concentrations by DC protein assay (Bio-Rad), 4 μg of proteins was mounted on 4 to 20% gradient Mini-PROTEAN TGX Gels (Bio-Rad) and electroblotted onto nitrocellulose membranes, which were then incubated in a blocking buffer of TBS containing 1% BSA. Primary antibody incubations were carried out overnight at 4° C. in blocking buffer. After washing, secondary antibody incubations were carried out at room temperature for 40 min in blocking buffer. Blots were developed with enhanced chemiluminescence (Amersham Pharmacia). […]

[2] = system: MethA; assay: Mouse therapy model, MethA-transplanted BALB/c mice (tumor volume); assay type: in vivo; conditions: MethA in BALB/c mice; combined with PD-L1 antibody
Method: MC38 (5×10^5) and MethA (5×10^5) cells were intradermally injected on the right flank. MC38 was inoculated into C57BL/6 mice and MethA was inoculated into BALB/c mice. For monotherapy, mice were intraperitoneally injected with 150 μg of PD-L1 mouse antibody (1-111A) (prepared by the laboratory of the present inventors) 5 days after the tumor inoculation. Therapy with PD-L1 antibody alone was repeated three times every 5 days. For combination therapy, administration of PD-L1 antibody and chemical agents started 7 days after tumor injection. Chemical agents were injected at a regular interval of 2 days and PD-L1 antibody at a regular interval of 5 days (shown in FIG. 3b). Tumors were measured on every alternate day, and tumor volumes were calculated using the formula for typical ellipsoid, π×(length×breadth×height/6).
The following chemical reagents were used at the indicated concentrations for combination therapy. AMPK activator: A769662, 6 mg/kg (Abcam); mTOR activator: MHY1485, 3 μg/kg (Sigma-Aldrich); uncoupler: carbonylcyanide-p-trifluoromethoxyphenylhydrazone (FCCP), 1.2 mg/kg (Abcam); uncoupler: 2,4-Dinitrophenol (DNP), 1.7 mg/kg (Aldrich); SIRT1 activator: resveratrol, 0.5 mg/kg (Abcam); ROS scavenger: Mn (III) tetrakis (4-benzoic acid) porphyrin (MnTBAP), 1.25 mg/kg (Calbiochem); ROS generator: tert-butyl hydroperoxide solution (Luperox TBH70X), 200 μL/kg (Sigma-Aldrich); ATP synthase inhibitor: oligomycin, 250 μg/kg (Sigma-Aldrich); paraquat 2 mg/kg (Nakalai Tesque); oltipraz 1.9 mg/kg (Sigma); bezafibrate 1 mg/kg (ChemCruz).
MethA cells (5×10^5) were inoculated into BALB/c mice. After 7 days, anti-PD-L1 antibody (1-111A, 80 μg) and Foxo1 inhibitor (5-amino-7-(cyclohexylamino)-1-ethyl-6-fluoro-4-oxo-1,4-dihydroquinoline-3-carboxylic acid, Calbiochem) (2 mg/kg) were administered intraperitoneally.
Fibrosarcoma MethA (Cell Resource Center for Biomedical Research) cells (5×10^5) were inoculated into BALB/c mice. After 7 days, anti-PD-L1 antibody (1-111A, 60 μg) and Aminoleban (Otsuka Pharmaceutical, 400 μl/mouse) were administered.

## N#CC(C#N)=NNc1ccc(OC(F)(F)F)cc1 [FCCP, carbonyl cyanide p-trifluoromethoxyphenylhydrazone]
[1]
  activation of mTOR and its associated proteins S6K and 4EBP1: also found to be activated
[2]
  enhancement of antitumor effect of PD-L1 antibody (tumor volume): enhanced the antitumor effect of PD-L1 antibody
